ChEMBL document CHEMBL5257023, “Identification of leads for antiproliferative activity on MDA-MB-435 human breast cancer cells through pharmacophore and CYP1A1-mediated metabolism” (Eur J Med Chem, 2016)

How the values were obtained:
[1] = test system: MDA-MB-435; test: Anticancer activity against human MDA-MB-435 cells assessed as cell growth at 10 uM incubated for 48 hrs by SRB assay; format: functional; conditions: read-out: Activity
[2] = test system: NCI-H226; test: Anticancer activity against human NCI-H226 cells assessed as inhibition of cell growth incubated for 48 hrs by SRB assay; format: functional
[3] = biological target: T1, CYP1A1 (Homo sapiens, UniProt P04798); test: Inhibition of recombinant CYP1A1 (unknown origin) assessed as residual enzyme activity using 7-ethoxyresorufin as substrate at 1 uM incubated for 15 mins by resorufin dye based spectrofluorimetry (reference value: 100%); format: ADME; conditions: recombinant CYP1A1, probe 7-ethoxyresorufin, read-out: Activity
T1 sequence (P04798 whole entry): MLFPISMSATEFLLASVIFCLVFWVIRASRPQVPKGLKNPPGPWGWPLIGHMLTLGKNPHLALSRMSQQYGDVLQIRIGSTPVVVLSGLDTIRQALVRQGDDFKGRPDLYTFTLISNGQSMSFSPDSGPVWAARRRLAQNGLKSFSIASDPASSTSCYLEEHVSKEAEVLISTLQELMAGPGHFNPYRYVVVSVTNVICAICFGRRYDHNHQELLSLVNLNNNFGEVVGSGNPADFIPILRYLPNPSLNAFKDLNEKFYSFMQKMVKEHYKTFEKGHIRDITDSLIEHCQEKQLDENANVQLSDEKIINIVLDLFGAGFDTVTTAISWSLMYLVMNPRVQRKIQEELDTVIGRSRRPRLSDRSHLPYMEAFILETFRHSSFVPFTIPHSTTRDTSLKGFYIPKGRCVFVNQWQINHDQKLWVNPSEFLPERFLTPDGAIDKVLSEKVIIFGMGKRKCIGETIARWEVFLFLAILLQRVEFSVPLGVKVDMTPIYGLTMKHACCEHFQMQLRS

[4] = biological target: T1, CYP1A1; test: Inhibition of recombinant CYP1A1 (unknown origin) assessed as residual enzyme activity using 7-ethoxyresorufin as substrate at 0.01 uM incubated for 15 mins by resorufin dye based spectrofluorimetry (reference value: 100%); format: ADME; conditions: recombinant CYP1A1, probe 7-ethoxyresorufin, read-out: Activity
[5] = test system: MDA-MB-468; test: Anticancer activity against human MDA-MB-468 cells assessed as cell growth at 100 uM incubated for 48 hrs by SRB assay; format: functional; conditions: read-out: Activity
[6] = biological target: T1, CYP1A1; test: Inhibition of recombinant CYP1A1 (unknown origin) assessed as residual enzyme activity using 7-ethoxyresorufin as substrate at 50 uM incubated for 15 mins by resorufin dye based spectrofluorimetry (reference value: 100%); format: ADME; conditions: recombinant CYP1A1, probe 7-ethoxyresorufin, read-out: Activity
[7] = biological target: T1, CYP1A1; test: Inhibition of recombinant CYP1A1 (unknown origin) assessed as residual enzyme activity using 7-ethoxyresorufin as substrate at 0.1 uM incubated for 15 mins by resorufin dye based spectrofluorimetry (reference value: 100%); format: ADME; conditions: recombinant CYP1A1, probe 7-ethoxyresorufin, read-out: Activity
[8] = test system: MCF7; test: Anticancer activity against human MCF7 cells assessed as cell growth at 100 uM incubated for 48 hrs by SRB assay; format: functional; conditions: read-out: Activity
[9] = test system: MDA-MB-435; test: Anticancer activity against human MDA-MB-435 cells assessed as cell growth at 1 uM incubated for 48 hrs by SRB assay; format: functional; conditions: read-out: Activity
[10] = test system: MDA-MB-468; test: Anticancer activity against human MDA-MB-468 cells assessed as cell growth at 1 uM incubated for 48 hrs by SRB assay; format: functional; conditions: read-out: Activity
[11] = biological target: T2, Cytochrome P450 1A1 (Homo sapiens, UniProt P04798); test: Inhibition of recombinant CYP1A1 (unknown origin) assessed as decrease in EROD activity using 7-ethoxyresorufin as substrate upto 100 uM incubated for 15 mins by resorufin dye based spectrofluorimetry; format: ADME; conditions: recombinant enzyme, 0.25 h
T2 sequence (P04798 whole entry): T1 sequence (P04798 whole entry)

[12] = test system: MCF7; test: Anticancer activity against human MCF7 cells assessed as cell growth at 0.1 uM incubated for 48 hrs by SRB assay; format: functional; conditions: read-out: Activity
[13] = test system: MCF7; test: Anticancer activity against human MCF7 cells assessed as cell growth at 10 uM incubated for 48 hrs by SRB assay; format: functional; conditions: read-out: Activity
[14] = test system: MDA-MB-435; test: Anticancer activity against human MDA-MB-435 cells assessed as inhibition of cell growth incubated for 48 hrs by SRB assay; format: functional
[15] = test system: MDA-MB-468; test: Anticancer activity against human MDA-MB-468 cells assessed as inhibition of cell growth incubated for 48 hrs by SRB assay; format: functional; conditions: for CC50: read-out: LC50 (the source's name)
[16] = test system: MCF7; test: Anticancer activity against human MCF7 cells assessed as cell growth at 1 uM incubated for 48 hrs by SRB assay; format: functional; conditions: read-out: Activity
[17] = test system: NCI-H226; test: Anticancer activity against human NCI-H226 cells assessed as cell growth at 100 uM incubated for 48 hrs by SRB assay; format: functional; conditions: read-out: Activity
[18] = test system: MDA-MB-468; test: Anticancer activity against human MDA-MB-468 cells assessed as cell growth at 0.1 uM incubated for 48 hrs by SRB assay; format: functional; conditions: read-out: Activity
[19] = biological target: T1, CYP1A1; test: Inhibition of recombinant CYP1A1 (unknown origin) assessed as residual enzyme activity using 7-ethoxyresorufin as substrate at 10 uM incubated for 15 mins by resorufin dye based spectrofluorimetry (reference value: 100%); format: ADME; conditions: recombinant CYP1A1, probe 7-ethoxyresorufin, read-out: Activity
[20] = biological target: T1, CYP1A1; test: Inhibition of recombinant CYP1A1 (unknown origin) assessed as residual enzyme activity using 7-ethoxyresorufin as substrate at 100 uM incubated for 15 mins by resorufin dye based spectrofluorimetry (reference value: 100%); format: ADME; conditions: recombinant CYP1A1, probe 7-ethoxyresorufin, read-out: Activity
[21] = test system: NCI-H226; test: Anticancer activity against human NCI-H226 cells assessed as cell growth at 10 uM incubated for 48 hrs by SRB assay; format: functional; conditions: read-out: Activity
[22] = test system: NCI-H226; test: Anticancer activity against human NCI-H226 cells assessed as cell growth at 0.1 uM incubated for 48 hrs by SRB assay; format: functional; conditions: read-out: Activity
[23] = test system: MCF7; test: Anticancer activity against human MCF7 cells assessed as inhibition of cell growth incubated for 48 hrs by SRB assay; format: functional; conditions: for CC50: read-out: LC50 (the source's name)
[24] = test system: NCI-H226; test: Anticancer activity against human NCI-H226 cells assessed as cell growth at 1 uM incubated for 48 hrs by SRB assay; format: functional; conditions: read-out: Activity
[25] = test system: MDA-MB-468; test: Anticancer activity against human MDA-MB-468 cells assessed as cell growth at 10 uM incubated for 48 hrs by SRB assay; format: functional; conditions: read-out: Activity
[26] = test system: MDA-MB-435; test: Anticancer activity against human MDA-MB-435 cells assessed as cell growth at 100 uM incubated for 48 hrs by SRB assay; format: functional; conditions: read-out: Activity
[27] = test system: MDA-MB-435; test: Anticancer activity against human MDA-MB-435 cells assessed as cell growth at 0.1 uM incubated for 48 hrs by SRB assay; format: functional; conditions: read-out: Activity

SMILES | growth at 10 µM [1] [%] | GI50 [2] [µM] | LC50 (concentration killing 50% of cells) [2] [µM] | TGI [2] [µM] | activity at 0.25 h, 1 µM [3] [%] | activity at 0.25 h, 0.01 µM [4] [%] | growth at 100 µM [5] [%] | activity at 0.25 h, 50 µM [6] [%] | activity at 0.25 h, 0.1 µM [7] [%] | growth at 100 µM [8] [%] | growth at 1 µM [9] [%] | growth at 1 µM [10] [%] | inhibition (INH) [11] | growth at 0.1 µM [12] [%] | growth at 10 µM [13] [%] | GI50 [14] [µM] | LC50 [14] [µM] | TGI [14] [µM] | GI50 [15] [µM] | TGI [15] [µM] | also measured
Cc1ccc(-c2cc(C(N)=O)c3cc(Cl)ccc3n2)o1 | 87.2 | 70.5 | > 100 | > 100 | 101 | 98.5 | 72.5 | 100 | 101 | 25.5 | 95 | 90.6 | Not Active | 98.2 | 79 | > 100 | > 100 | > 100 | > 100 | > 100 | CC50 [15]: > 100 µM; growth at 1 µM [16]: 92.5%; growth at 100 µM [17]: 39.9%; growth at 0.1 µM [18]: 91.9%; activity at 0.25 h, 10 µM [19]: 98.6%; activity at 0.25 h, 100 µM [20]: 104%; growth at 10 µM [21]: 60.5%; growth at 0.1 µM [22]: 84.8%; GI50 [23]: 63.9 µM; TGI [23]: > 100 µM; CC50 [23]: > 100 µM; growth at 1 µM [24]: 76.6%; growth at 10 µM [25]: 85.9%; growth at 100 µM [26]: 77.2%; growth at 0.1 µM [27]: 98.4%
Cc1cc(C)n(C(=O)CNc2ccccc2Cl)n1 | 100 | > 100 | > 100 | > 100 | 99.9 | 101 | 43.3 | 104 | 100 | 26.7 | 100 | 100 | Not Active | 89.6 | 77.2 | > 100 | > 100 | > 100 | 89.3 | > 100 | CC50 [15]: > 100 µM; growth at 1 µM [16]: 82.9%; growth at 100 µM [17]: 63.6%; growth at 0.1 µM [18]: 100%; activity at 0.25 h, 10 µM [19]: 98.2%; activity at 0.25 h, 100 µM [20]: 99.3%; growth at 10 µM [21]: 71.5%; growth at 0.1 µM [22]: 82.5%; GI50 [23]: 61.1 µM; TGI [23]: > 100 µM; CC50 [23]: > 100 µM; growth at 1 µM [24]: 73.4%; growth at 10 µM [25]: 94.7%; growth at 100 µM [26]: 85.9%; growth at 0.1 µM [27]: 100%
Cc1cc(C)cc(O[C@H](C)C(=O)Nc2ccc(F)c([N+](=O)[O-])c2)c1 | 100 | > 100 | > 100 | > 100 | 94.2 | 98.8 | -29.4 | 96.6 | 93.5 | 27.8 | 100 | 97.9 | Not Active | 89.3 | 73.5 | > 100 | > 100 | > 100 | 40.9 | 79.1 | CC50 [15]: > 100 µM; growth at 1 µM [16]: 85.5%; growth at 100 µM [17]: 58.2%; growth at 0.1 µM [18]: 99.1%; activity at 0.25 h, 10 µM [19]: 95.7%; activity at 0.25 h, 100 µM [20]: 96.4%; growth at 10 µM [21]: 65.6%; growth at 0.1 µM [22]: 73.7%; GI50 [23]: 61.6 µM; TGI [23]: > 100 µM; CC50 [23]: > 100 µM; growth at 1 µM [24]: 71.8%; growth at 10 µM [25]: 95.9%; growth at 100 µM [26]: 89.5%; growth at 0.1 µM [27]: 100%
